Test results published in paper PMC6395809 (Scientific Reports, 2019).
Like-named read-outs stand apart in the source and are kept apart here.

What was measured:
[1] = target: T1, GST_SH3_p130Cas recombinant protein (SH3 domain of p130Cas) (Homo sapiens, UniProt P56945); assay: Fluorescence quenching of Fl-GST_SH3_p130Cas by compounds; assay type: binding
T1 construct: fragment of p130Cas protein (aminoacids 3–71); made in house; host or cells: Escherichia coli BL21
T1 sequence (P56945 3-71): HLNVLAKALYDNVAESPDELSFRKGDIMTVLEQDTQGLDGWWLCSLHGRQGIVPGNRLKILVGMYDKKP
Method: To experimentally validate the binding of compound 1 and 2 on GST_SH3_p130Cas recombinant protein, fluorescence quenching experiments were performed.
The fluorescence spectra of Fl-GST_SH3_p130Cas in the absence and in the presence of 1 and 2 at different concentrations are shown in Fig. 4C.
(§1) All fluorescence spectra were recorded with a Horiba Jobin Yvon Fluorolog3 TCSPC spectrofluorophotometer with 1.0 cm quartz cells For fluorescence experiments, GST_SH3_p130Cas was firstly tagged with fluorescein (Fl-GST_SH3_p130Cas) using a methodology described in the literature[34] see Supporting Information). […] Fluorescence emission spectra of Fl-GST_SH3_p130Cas in the presence of 1 and 2 were obtained using the following concentrations: Fl-GST_SH3_p130Cas = 0.7 μM; 1 and 2 = 0–21 μM.
(§2) The variation in fluorescence emission at 518 nm of Fl-GST_SH3_p130Cas was monitored in all experiments.
Fluorescence data analysis
The obtained spectroscopic data were analysed by a […] non linear least-squares fit procedures reported in Equation 2 2: […]
in which y is the binding derived by measuring fluorescence intensity, [Q] is the concentration of tested compound, Bmax is the maximum amount of protein/compound complex (Fl-GST_SH3_p130Cas/compound) formed at saturation and Kd is the equilibrium dissociation constant. […]

[2] = target: T2, interaction between GST_SH3_p130Cas and MBP_shortPPII_ErbB2 recombinant proteins (Homo sapiens, UniProt P56945); assay: Competitive ELISA binding assay; assay type: biochemical; settings: increasing concentration of compound
T2 construct: fragment of p130Cas protein (aminoacids 3–71); made in house; host or cells: Escherichia coli BL21
T2 sequence (P56945 3-71): T1 sequence (P56945 3-71)
Method: The day after, washing steps and saturation were performed using PBS and 3%BSA in PBS at room temperature. MBP-tagged ErbB2 purified recombinant proteins and MBP_ctrl (100 nM/well) were added in 100 μl/well of PBS for 2 h. After washing, anti-MBP mouse monoclonal antibody (0.25 μg/ml) was added for 2 h followed by peroxidase conjugated anti-mouse secondary antibody for 1 h.
For validation of inhibitory activity of selected compounds, ELISA binding assay was setup as reported above.

[3] = target: T3, binding between Fl-GST_SH3_p130Cas and MBP_shortPPII_ErbB2 (Homo sapiens, UniProt P56945); assay: Fluorescence experiment: MBP_shortPPII_ErbB2 added to Fl-GST_SH3_p130Cas/compound complex; settings: compared to compound 2; MBP_shortPPII_ErbB2 0.1-0.75 μM
T3 construct: fragment of p130Cas protein (aminoacids 3–71); made in house; host or cells: Escherichia coli BL21
T3 sequence (P56945 3-71): T1 sequence (P56945 3-71)
Method: as §1, with “For” for “All fluorescence spectra were recorded with a Horiba Jobin Yvon Fluorolog3 TCSPC spectrofluorophotometer with 1.0 cm quartz cells For”
as §2

[4] = target: T4, endogenous p130Cas/ErbB2 complex in BT474 cells (Homo sapiens, UniProt P56945); assay: Co-immunoprecipitation of p130Cas/ErbB2 in BT474 cells; assay type: cell-based; settings: BT474 cells pre-treated for 24 hours
T4 construct: endogenous p130Cas/ErbB2 complex in BT474 cells; host or cells: BT474
T4 sequence (P56945 1-870): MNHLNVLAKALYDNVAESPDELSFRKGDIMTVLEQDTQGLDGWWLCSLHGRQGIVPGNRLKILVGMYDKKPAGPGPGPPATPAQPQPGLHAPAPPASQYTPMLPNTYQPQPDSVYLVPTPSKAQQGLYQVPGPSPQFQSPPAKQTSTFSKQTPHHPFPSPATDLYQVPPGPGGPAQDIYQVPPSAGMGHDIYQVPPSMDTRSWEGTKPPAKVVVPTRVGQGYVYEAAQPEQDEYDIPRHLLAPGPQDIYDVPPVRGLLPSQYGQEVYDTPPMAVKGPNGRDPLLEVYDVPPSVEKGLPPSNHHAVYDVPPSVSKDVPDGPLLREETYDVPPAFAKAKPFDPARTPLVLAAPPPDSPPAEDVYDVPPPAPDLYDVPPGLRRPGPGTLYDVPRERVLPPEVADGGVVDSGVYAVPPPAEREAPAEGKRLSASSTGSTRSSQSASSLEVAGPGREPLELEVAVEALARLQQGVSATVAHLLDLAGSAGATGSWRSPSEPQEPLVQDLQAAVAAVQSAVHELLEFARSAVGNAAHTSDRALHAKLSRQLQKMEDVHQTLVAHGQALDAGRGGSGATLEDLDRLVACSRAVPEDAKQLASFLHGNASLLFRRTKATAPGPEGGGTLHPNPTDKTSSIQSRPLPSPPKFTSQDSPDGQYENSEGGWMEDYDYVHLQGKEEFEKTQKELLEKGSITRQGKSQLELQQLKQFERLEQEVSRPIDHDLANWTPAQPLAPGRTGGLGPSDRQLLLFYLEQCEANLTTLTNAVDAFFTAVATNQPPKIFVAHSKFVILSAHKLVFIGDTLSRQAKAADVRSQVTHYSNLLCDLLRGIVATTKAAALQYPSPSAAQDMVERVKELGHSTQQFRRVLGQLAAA
Method: GAPDH expression was used as loading control. Data are represented as mean ± SD. **p < 0.01, ***p < 0.001.
To assess whether these compounds could interfere with p130Cas/ErbB2 association in a cellular context, ErbB2-positive BT474 breast cancer cells were pre-treated for 24 hours with 1 or 2 and subjected to co-immunoprecipitation experiments.

[5] = test system: BT474 breast cancer cells; assay: Cell proliferation assay (MTT), BT474; assay type: cell-based; settings: Homo sapiens, BT-474, 72 h, BT474, 3 days
Method: (§3) For proliferation assay BT474, SKBR3 and SKH100 cells were seeded in 8 replicates at 1000 cells/well concentration (25% confluency) in four different 96-well cell culture plates and then incubated with increasing concentration of 1 and 2 for 3 days. Changes in proliferation rate were detected by MTT assay (11465007001 Roche, Cell Proliferation Kit I) following manufacturer instruction. Sterile DMSO was used as control for non-specific solvent effect on proliferation.

[6] = test system: ErbB2-negative HEK 293T cells; assay: Proliferation assay of ErbB2-negative HEK 293T cell line; assay type: cell-based, human; settings: serial dilutions, three days, MTT
Method: Figure S5. Proliferation assay of ErbB2-negative HEK 293T cell line treated with inhibitory […]
To assess whether 1 and 2 could affect cell proliferation independently from p130Cas/ErbB2 inhibition, ErbB2 ErbB2-negative cell line, HEK 293T cells were treated with serial dilutions of 1 and 2 (or sterile DMSO). After three days, live cells were detected by standard MTT assay. […]
any effect even at high concentration.
(1 picture or pasted object on this page, not shown here)

SKBR3 cells = assay: Combination with Trastuzumab in SKBR3 cells (MTT); assay type: cell-based, human; settings: SKBR3, Trastuzumab 25 μg/ml, three days
Method: (§4) Figure 6 Impact of 1 and 2 compounds on BT474 breast cancer cells. (A) To assess whether 1 and 2 could trigger cytotoxic effects on living cells, BT474 cells were treated with serial dilutions of 1 and 2 (or sterile DMSO). After three days, live cells were detected by standard MTT assay, highlighting the appearance of cytotoxic effects above 75 μM for compound 1. […] Cells were treated with different concentration of the 1 and 2 and proliferation was assayed three days later by performing MTT assay. Results were fitted with four-parameter dose-response curve using GraphPad Prism7 software. […] (E) SKBR3 cells were treated with Trastuzumab (25 μg/ml) either alone or in combination with compound 1 or 2 at the indicated doses. After three days, live cells were detected by standard MTT assay. Data are represented as mean ± SD. *p < 0.05, **p < 0.01. […] After three days, live cells were detected by standard MTT assay. […]
as §3, with “Sterile DMSO was used as control for non-specific solvent effect on proliferation.” left out

[7] = test system: SKH100 Trastuzumab-resistant cells; assay: Combination with Trastuzumab in SKH100 Trastuzumab-resistant cells (MTT); assay type: cell-based, human; settings: SKH100, Trastuzumab 100 μg/ml, three days
Method: as §4
as §3, with “Sterile DMSO was used as control for non-specific solvent effect on proliferation.” left out

BT474 cells = assay: Cytotoxicity assay (MTT); assay type: cell-based, human; settings: BT474, three days, serial dilutions 250-0.12 μM
Method: For cytotoxicity assay BT474 cells were seeded at 5000 cells/well concentration (100% confluency) in a 96-well cell culture plate and incubated with serial dilutions of 1 and 2 compounds (from 250 μM to 0.12 μM). Cytotoxicity was evaluated after 3 days by MTT assay (11465007001 Roche, Cell Proliferation Kit I) following manufacturer instruction.

[8] = test system: SKBR3 breast cancer cells; assay: Cell proliferation assay (MTT), SKBR3; assay type: cell-based; settings: Homo sapiens, SK-BR-3, 72 h, SKBR3, 3 days
Method: as §3

[9] = test system: ErbB2-positive breast cancer patients; settings: cited from earlier work
MBP_shortPPII_ErbB2 [10] = target: T5, MBP_shortPPII_ErbB2 (human (by the printed accession …, UniProt P04626-1 1103-1194)); assay: other fluorescence titration; Fl-GST_SH3_p130Cas fixed at 3.0 μM, MBP_shortPPII_ErbB2 0.05–3.0 μM; emission at 518 nm; nonlinear least-squares fit; settings: both partners purified
T5 construct: ErbB2 cytosolic portion, aminoacids 1103-1194, holds the polyproline type II motif V[RPQPPSP]R at 1145-1153 (isoform 1, P04626-1); the printed residue limits are kept; source: E. coli BL21, purified (Sepharose amylose column), dialyzed against PBS; not shown: MBP, N-terminal, kept

[11] = target: T6, MBP_R → D_shortPPII_ErbB2 (human (by the printed accession …, UniProt P04626-1 1103-1194, R to D at position 44 (position 1146 in the original ErbB2 sequence))); assay: ELISA; direct binding: 100 nM/well of GST_SH3_p130Cas (or mutants) coated in PBS overnight at 4 °C; MBP-tagged ErbB2 proteins (100 nM/well) in PBS for 2 h; detected with anti-MBP; normalized on GST_ctrl and MBP_ctrl; settings: both partners purified
T6 construct: ErbB2 cytosolic portion, aminoacids 1103-1194, with R to D at position 44 of the fragment (1146 in ErbB2); motif V[DPQPPSP]R; source: E. coli BL21, purified (Sepharose amylose column); not shown: MBP, N-terminal, kept

MBP_longPPII_ErbB2 = target: T7, MBP_longPPII_ErbB2 (human (by the printed accession …, UniProt P04626-1 1103-1255)); assay: co-IP; in vitro binding assay: GST-tagged p130Cas and MBP-tagged ErbB2 purified proteins mixed in Interaction Buffer with 1% BSA overnight at 4 °C; immunoprecipitated with anti-MBP and proteinA Sepharose; blot anti-GST; settings: both partners purified
T7 construct: ErbB2 cytosolic portion, aminoacids 1103-1255 (isoform 1, P04626-1); the printed residue limits are kept; source: E. coli BL21, purified (Sepharose amylose column), dialyzed against PBS; not shown: MBP, N-terminal, kept

MBP_shortPPII_ErbB2 [12] = target: T5, MBP_shortPPII_ErbB2; assay: far-Western, overlay or dot blot; 1 μl of GST-tagged p130Cas proteins spotted on nitrocellulose; probed with MBP-tagged ErbB2 protein (1 μg/ml) in Interaction Buffer (50 mM Tris-HCl pH7.4, 150 mM NaCl, 1%Triton-X100) at 4 °C overnight; detected with anti-MBP; settings: both partners purified

**Q.** For O=C(CNC(=O)NC1CC1)Nc1nnc(C23CC4CC(CC(C4)C2)C3)s1 [Compound 1], which Kd [1] is on record?
**A.** 0.2 µM

**Q.** And the “inhibition of GST_SH3_p130Cas/MBP_shortPPII_ErbB2 association” value [2]?
**A.** dose-dependent inhibition

**Q.** And the “efficiency in preventing binding between Fl-GST_SH3_p130Cas and MBP_shortPPII_ErbB2” value [3]?
**A.** more efficient

**Q.** And the “association of p130Cas to ErbB2 (co-immunoprecipitation)” value [4]?
**A.** reduced the association

**Q.** What about the EC50 [5] of the same molecule?
**A.** 52.3 ± 6.38 µM

**Q.** What about the “effect on cell proliferation” value [6] of the same molecule?
**A.** no significant effect

**Q.** What about the “effect on efficacy of Trastuzumab treatment” value (SKBR3 cells) of the same molecule?
**A.** significantly enhances

**Q.** And the “effect on sensitivity of resistant cells to Trastuzumab” value [7]?
**A.** partially restores

**Q.** For NS(=O)(=O)N[C@H]1CCCc2ccccc21 [Compound 2], which Kd ([1]; fluorescence quenching of Fl-GST_SH3_p130Cas, emission at 518 nm, nonlinear least-squares fit, read-out: KD (equilibrium dissociation constant)) is on record?
**A.** 5 µM

**Q.** And the “inhibition of GST_SH3_p130Cas/MBP_shortPPII_ErbB2 association” value [2]?
**A.** dose-dependent inhibition

**Q.** What about the “association of p130Cas to ErbB2 (co-immunoprecipitation)” value [4] of the same molecule?
**A.** reduced the association

**Q.** What about the “concentration at which cytotoxic effects appear” value (BT474 cells) of the same molecule?
**A.** > 250 µM

**Q.** And the EC50 [5]?
**A.** 240 ± 26 µM

**Q.** And the EC50 [8]?
**A.** 274 ± 27.2 µM

**Q.** What about the “effect on cell proliferation” value [6] of the same molecule?
**A.** did not have

**Q.** For N#CC(Cc1ccc(O)cc1)c1ccc(O)cc1 (stereo not drawn) [DPN, Diarylpropionitrile, reference compound], which “inhibition of GST_SH3_p130Cas/MBP_shortPPII_ErbB2 association” value [2] is on record?
**A.** no modulation

**Q.** For T-DM1, which “patients in whom treatment failed to induce response” value [9] is on record?
**A.** 57%

B1: Fl-GST_SH3_p130Cas (domain or fragment, UniProt P56945 3-71, looked up)
chain: T1 sequence (P56945 3-71)
modifications: also: fluorescein (site not given here)
notes: source: E. coli BL21, purified (Sepharose glutathione column), then tagged with fluorescein; not shown: GST, N-terminal, kept
**Q.** With B1 as the molecule, how does the Kd (MBP_shortPPII_ErbB2 [10]) read?
**A.** 0.0407 µM

B2: GST_SH3_p130Cas (domain or fragment, UniProt P56945 3-71, looked up)
chain: T1 sequence (P56945 3-71)
notes: p130Cas SH3 domain, aminoacids 3-71, amplified from cDNA and cloned in pGEX-4T3; also called SH3 domain of p130Cas; source: E. coli BL21, purified (Sepharose glutathione column), dialyzed against PBS; not shown: GST, N-terminal, kept
**Q.** Does B2 bind [11]?
**A.** binds

**Q.** Does B2 bind (MBP_longPPII_ErbB2)?
**A.** binds

**Q.** Does B2 bind (MBP_shortPPII_ErbB2 [12])?
**A.** binds
